The nature of data set [1]: acute toxicity, LD50 determined on the mouse upon oral administration. The note with it: in vivo. An excerpt: While having an extremely low acute toxicity (cf. LD50 -values in Table I), the imidazolyl-(2)-carbinols reduce the lipid level in the serum and reduce artificially produced hyperlipidemia.
The values in brackets of the first column designate the LD50values
(§1) in g/kg, determined on the mouse upon oral administration. The values

The test system of data set [2] is serum lipid level. The experiment in a line: Standard test on a male rat with normal serum lipid level (hypolipidemic action, 8 peroral administrations). The data set is classed as in vivo. The note with it: for change in vivo at 100 mg/kg / change in vivo at 30 mg/kg / change in vivo at 10 mg/kg: Rattus norvegicus, po, 192 h. The method, then:
1. Standard test on a male rat with normal serum lipid level
The period of time used for the experiment was 8 days. Administration was effected once daily with the aid of an oesophageal sound with doses of 100, 30 and 10 mg/kg, respectively. In general, blood was withdrawn prior to and after the treatment and the concentration of cholesterin was determined in the serum according to the method described by Lauber and Richterich and that of triglycerides according to the method described by Eggstein and Kreutz.
as §1
before the oblique stroke of the other columns denote the percentual
change of the posterior value (value after the treatment) referred to the
anterior value (starting value before the treatment) of the group of
preparations, the anterior value being 100%; the values behind the obliqu
stroke indicate the percentual change of the posterior value of the group
treated with reference to the posterior value (= 100%) of a placebo group

Data set [3] in a line: solubility in the usual solvents. The data set is classed as physicochemical.
The test system of data set [4] is triton-hyperlipidemia. The experiment in a line: Triton-Hyperlipidemia of the male rat (inhibition of triton-hyperlipidemia). Type of data set: in vivo. As to conditions: 4-days pre-treatment; for Inhibition of triton-hyperlipidemia, Serum-cholesterin / Inhibition of triton-hyperlipidemia, Serum-triglyceride: 300 mg/kg Triton WR 1339 i.p., Triton control = 100%. The method, then: 2. Triton-Hyperlipidemia of the male rat
The influence of a 4-days pre-treatment with the compound of Example 1 on the formation of hyperlipidemia produced by i.p. application of 300 mg/kg of Triton ® WR 1339 was tested in comparison to a control group (=100%) which had only been treated with Triton.

Data set [5] relates to dietetic hypercholesterinemia. The data set is described as follows: Dietetic hypercholesterinemia of the male rat (inhibition of dietetic hypercholesterinemia). Type of data set: in vivo. As to conditions: 100 mg/kg p.o. once daily. As to the method:
3. Dietetic hypercholesterinemia of the male rat
Hypercholesterinemia was produced by the addition of 2% of cholesterin and 20% of coconut fat (Palmin) to the normal fodder. The rise of the cholesterin level was determined by comparison with a control group (=100%) which had been given normal fodder only. (Line 1 in Table III). The animals of the preparation group obtained at the same time of the begin of the diet daily once 100 mg/kg p.o. of the compound of Example 1. […]

The mark [6] stands for this setting: 100 mg/kg/day p.o., 8 administrations, value before the oblique stroke (anterior value = 100%), read-out: % change of Serum-Cholesterin, after treatment vs starting value before treatment.
Where [7] appears, read: 100 mg/kg/day p.o., 8 administrations, value before the oblique stroke (anterior value = 100%), read-out: % change of Serum-triglycerides, after treatment vs starting value before treatment.
Setting [8] is: 100 mg/kg/day p.o., 8 administrations, value behind the oblique stroke (placebo posterior value = 100%), read-out: % change of Serum-triglycerides, treated group vs placebo group.
Setting [9] is: 30 mg/kg/day p.o., 8 administrations, value before the oblique stroke (anterior value = 100%), read-out: % change of Serum-Cholesterin, after treatment vs starting value before treatment.
Setting [10] is: 30 mg/kg/day p.o., 8 administrations, value before the oblique stroke (anterior value = 100%), read-out: % change of Serum-triglycerides, after treatment vs starting value before treatment.
The mark [11] stands for this setting: 100 mg/kg/day p.o., 8 administrations, value behind the oblique stroke (placebo posterior value = 100%), read-out: % change of Serum-Cholesterin, treated group vs placebo group.
[12] abbreviates: read-out: % change of Serum-Cholesterin, after treatment vs starting value before treatment.
Where [13] appears, read: read-out: % change of Serum-triglycerides, after treatment vs starting value before treatment.
Where [14] appears, read: read-out: % change of Serum-triglycerides, treated group vs placebo group.
Setting [15] is: 30 mg/kg/day p.o., 8 administrations, value behind the oblique stroke (placebo posterior value = 100%), read-out: % change of Serum-Cholesterin, treated group vs placebo group.
Where [16] appears, read: 30 mg/kg/day p.o., 8 administrations, value behind the oblique stroke (placebo posterior value = 100%), read-out: % change of Serum-triglycerides, treated group vs placebo group.
The mark [17] stands for this setting: 10 mg/kg/day p.o., 8 administrations.

Where two headings read alike, the source gives them in different places.

In general, LD50 refers to the dose at which mortality reaches 50%. In the case of `OC(c1ccccc1)(c1ncc[nH]1)c1ncc[nH]1` [Example 7, Bis-[imidazolyl-(2)]-phenyl-carbinol], the LD50 in data set [1] was > 4000 mg/kg. The values for the change in vivo at 100 mg/kg in data set [2] (setting [6]), in data set [2] (setting [7]) and in data set [2] (setting [8]) were -7%, -18% and -18%, respectively. Besides, in data set [3], the “solubility (in words)” value is “not soluble or poorly soluble only in the usual solvents”.

Consider `OC1(c2nccn2Cc2ccccc2)c2ccccc2-c2ccccc21` [Example 4, 9-[1-Benzylimidazolyl-(2)]-fluorene-9-ol], for which the LD50 in data set [1] was > 4000 mg/kg. Also, the change in vivo at 30 mg/kg was -11% in data set [2] (setting [9]) and -25% in data set [2] (setting [10]). For the same compound, the change in vivo at 100 mg/kg was -16% in data set [2] (setting [6]), -48% in data set [2] (setting [7]), -21% in data set [2] (setting [11]) and -37% in data set [2] (setting [8]).

Regarding `CC(C)n1ccnc1C(O)C(Cl)(Cl)Cl` (stereo not drawn) [Example 3, 1-[1-Isopropylimidazolyl-(2)]-2,2,2-trichloroethanol], the 50% lethal dose (LD50) in data set [1] was > 4000 mg/kg. In addition, the change in vivo at 30 mg/kg in data set [2] (setting [12]) is -16%; in data set [2] (setting [13]) it was -21%; in data set [2] (setting [14]) it was -6%. Also, the change in vivo at 100 mg/kg is -6% in data set [2] (setting [12]); -18% in data set [2] (read-out: % change of Serum-Cholesterin, treated group vs placebo group); -57% in data set [2] (setting [13]); -30% in data set [2] (setting [14]).

Turning to `OC(c1ccccc1)(c1nccn1Cc1ccccc1)c1nccn1Cc1ccccc1` [Example 1, Bis-[1-benzylimidazolyl-(2)]-phenyl-carbinole], the LD50 in data set [1] is > 4000 mg/kg. The change in vivo at 10 mg/kg was -10% in data set [2] (10 mg/kg/day p.o., 8 administrations, value before the oblique stroke (anterior value = 100%), read-out: % change of Serum-Cholesterin, after treatment vs starting value before treatment); -12% in data set [2] (10 mg/kg/day p.o., 8 administrations, value behind the oblique stroke (placebo posterior value = 100%), read-out: % change of Serum-Cholesterin, treated group vs placebo group); -13% in data set [2] (10 mg/kg/day p.o., 8 administrations, value behind the oblique stroke (placebo posterior value = 100%), read-out: % change of Serum-triglycerides, treated group vs placebo group). The change in vivo at 30 mg/kg in data set [2] (setting [9]) is -33%; in data set [2] (setting [10]), -25%; in data set [2] (setting [15]), -10%; in data set [2] (setting [16]), -10%. Moreover, the “Inhibition of triton-hyperlipidemia, Serum-cholesterin” value is -31% in data set [4] (10 mg/kg/day p.o.) and -28% in data set [4] (100 mg/kg/day p.o.). The “Inhibition of triton-hyperlipidemia, Serum-triglyceride” value in data set [4] (10 mg/kg/day p.o.) is on record as -40%; in data set [4] (100 mg/kg/day p.o.) it was -35%. In addition, the “% change of the total cholesterin content in the serum, inhibition due to preparation (diet = 100%)” value is given as -23% in data set [5] (after 8 days), -19% in data set [5] (after 20 days) and -9% in data set [5] (after 33 days).

On to `Cn1c(C(O)(c2ccccc2)c2ccc(Cl)cc2Cl)nc2ccccc21` (stereo not drawn) [Example 6, Phenyl-(2,4-dichlorophenyl)-[1-methylbenzimidazolyl-(2)]-carbinol], for which the LD50 in data set [1] is > 4000 mg/kg. Also, the change in vivo at 30 mg/kg was -20% in data set [2] (setting [9]), -19% in data set [2] (setting [10]) and -29% in data set [2] (setting [16]). Further, the change in vivo at 100 mg/kg in data set [2] (setting [6]) is -12%; in data set [2] (setting [7]) it was -46%; in data set [2] (setting [11]), -25%; in data set [2] (setting [8]), -35%.

Take `COc1ccc(C(O)c2nccn2-c2ccccc2)cc1OC` (stereo not drawn) [Example 11, (3,4-Dimethoxy-phenyl)-[1-phenylimidazolyl-(2)]-carbinol]: the LD50 in data set [1] is > 4000 mg/kg. In addition, the change in vivo at 100 mg/kg is -24% in data set [2] (setting [6]), -32% in data set [2] (setting [7]), -3% in data set [2] (setting [11]) and -21% in data set [2] (setting [8]).

With `Cn1c(C(O)c2nccn2Cc2ccccc2)nc2ccccc21` (stereo not drawn) [Example 9, [1-Benzylimidazolyl-(2)]-[1-methylbenzimidazolyl-(2)]-carbinol], the LD50 in data set [1] was > 4000 mg/kg. For the same compound, the change in vivo at 100 mg/kg was -21% in data set [2] (setting [6]), -40% in data set [2] (setting [7]), -11% in data set [2] (setting [11]) and -24% in data set [2] (setting [8]).

`CC(O)c1nccn1Cc1ccccc1` (stereo not drawn) [Example 2, 1-[1-benzylimidazolyl-(2)]-ethanol] registered an LD50 in data set [1] of 1120 mg/kg. Moreover, the change in vivo at 100 mg/kg in data set [2] (setting [6]) was -24%; in data set [2] (setting [11]), -3%; in data set [2] (setting [8]) it was -4%.

As for `CC(C)n1ccnc1C(C)(O)c1ccc(Cl)cc1` (stereo not drawn) [Example 8, Methyl-(p-chlorophenyl)-[1-isopropylimidazolyl-(2)]-carbinol], the LD50 in data set [1] was > 4000 mg/kg. Further, the change in vivo at 100 mg/kg in data set [2] (setting [6]) is -14%; in data set [2] (setting [7]), -39%; in data set [2] (setting [8]), -21%.

For the compound `CC(O)(c1ccc(OC(F)(F)C(F)Cl)cc1)c1nccn1Cc1ccccc1` (stereo not drawn) [Example 10, 1-[p-(1,1,2-trifluoro-2-chloro-ethoxy)-phenyl]-1-[1-benzylimidazolyl-(2)]-ethanol], the median lethal dose (LD50) in data set [1] is > 4000 mg/kg. Further, the change in vivo at 100 mg/kg is -36% in data set [2] (setting [6]), -56% in data set [2] (setting [7]), -21% in data set [2] (setting [11]) and -26% in data set [2] (setting [8]).

With `CCOC(=O)C(C)(C)Oc1ccc(Cl)cc1` [Clofibrate, 2-(p-chlorophenoxy)-isobutyric acid ethyl ester, reference compound], the LD50 in data set [1] lay in the range of 2000 to 2500 mg/kg. For the same compound, the “change of Serum-Cholesterin (in words)” value in data set [2] (setting [17]) is on record as “ineffective”. Besides, the “change of Serum-triglycerides (in words)” value in data set [2] (setting [17]) was “ineffective”. Further, the change in vivo at 30 mg/kg in data set [2] (setting [9]) is -5%; in data set [2] (setting [10]), -4%; in data set [2] (setting [15]) it was -8%; in data set [2] (setting [16]), -7%. For the same compound, the change in vivo at 100 mg/kg in data set [2] (setting [6]) was -22%; in data set [2] (setting [7]) it was -30%; in data set [2] (setting [11]), -13%; in data set [2] (setting [8]), -30%. Further, the “Inhibition of triton-hyperlipidemia, Serum-cholesterin (in words)” value in data set [4] (10 mg/kg/day p.o.) was “ineffective”. Further, the “Inhibition of triton-hyperlipidemia, Serum-triglyceride (in words)” value in data set [4] (10 mg/kg/day p.o.) was “ineffective”. Further, the “Inhibition of triton-hyperlipidemia, Serum-cholesterin” value in data set [4] (100 mg/kg/day p.o.) is listed as -29%. In data set [4] (100 mg/kg/day p.o.), the “Inhibition of triton-hyperlipidemia, Serum-triglyceride” value is recorded as -16%.

Consider `Cn1ccnc1C(O)(c1ccccc1)c1ccc(Cl)cc1Cl` (stereo not drawn) [Example 5, Phenyl-(2,4-dichlorophenyl)-[1-methylimidazolyl-(2)]-carbinol], for which the 50% lethal dose (LD50) in data set [1] was > 4000 mg/kg. For the same compound, the change in vivo at 30 mg/kg in data set [2] (setting [9]) was -23%; in data set [2] (setting [10]) it was -1%; in data set [2] (setting [15]), -9%; in data set [2] (setting [16]), -17%. The change in vivo at 100 mg/kg was -19% in data set [2] (setting [6]), -37% in data set [2] (setting [7]), -32% in data set [2] (setting [11]) and -35% in data set [2] (setting [8]).

The values are drawn from patent US4213994A, “Imidazolyl-(2)-carbinols having hypolipidemic action and process for preparing them” (Hoechst Aktiengesellschaft, priority 1971, dated 1980).
